Reference: patent publication EP0403251A2, “Monokine activity interference” (SMITHKLINE BEECHAM CORPORATION, priority 1989, dated 1990)
Entries after “also recorded” stand apart in the source; their conditions may differ. Read-outs that look alike come from different tables or passages of the source. Blank lines part the entries; values can stand above or below the compound they belong to.

Experiments:
[1] = tested on: TNF Production by Human Monocytes; assay: Inhibitory effect on in vitro LPS induced TNF production by human monocytes (ELISA); type: cell-based; conditions: Monocyte; LPS (50 ng/ml) induced TNF, human peripheral blood monocytes, compound added 1 hr before LPS, 24 hours; NA - not active; read-out: IC₅₀
Experimental: The effects of the compounds enumerated above on the in vitro production of TNF by human monocytes was examined using the following protocol..
Bacterial lipopolysaccharide (LPS) was used to induce TNF production by human peripheral blood monocytes. TNF activity was measured by a modification of Winston et al., ELISA, described below. Human peripheral blood monocytes were isolated and purified from either fresh blood preparations from volunteer donors, from blood bank buffy coats, or from plateletpheresis residues according to the procedure of Colotta et al., J. Immunol., 132, 936 (1984). 1 X 10⁶ of such monocytes were plated in 24-well plates at a concentration of 1-2 million/ml per well. The cells were allowed to adhere for 2 hours, after which time non-adherent cells were removed by gentle washing. Test compounds were then added to the cells for 1 hour (hr) before the addition of LPS (50 ng/ml), and the cultures were incubated at 37 °C for an additional 24 hours. At the end of the incubation period, culture supernatants were removed and clarified of cells and all debris. Culture supernatants were immediately assayed for TNF levels in the manner described below.
Levels of TNF were mesured using a modification of the basic sandwich ELISA assay method described in Winston et al., Current Protocols in Molecular Biology. Page 11.2.1, Ausubel et al., Ed. (1987) John Wiley and Sons, New York, USA The Elisa employes a murine monoclonal anti-human TNF antibody, described below, as the capture antibody and a polyclonal rabbit anti-human TNF , described below, as the second antibody. For detection, a peroxidase-conjgated goat anti-rabbit antibody (Boehringer Mannheim, Indianopolis, Indiana, USA, Catalog #605222) was added followed by a substrate for peroxidase (1mg/ml orthophenylenediamine with 0.1% urea peroxide). TNF levels in samples were calculated from a standard curve genereated with recombinant human TNF produced in E. Coli (obtained from SmithKline Beecham Pharmaceuticals, King of Prussisa, PA, USA).
Monoclonal antibodies to human TNF were prepared from spleens of BALB/c mice immunized with recombinant human TNF using a modification of the method of Kohler and Millstein, Nature 256: 495(1975), the entire disclosure of which is hereby incorporated by reference. Polyclonal rabbit anti-human TNF antibodies were prepared by repeated immunization of New Zeland White (NZW) rabbits with recombinant human TNF emulsified in complete Freund's adjuvant (DIFCO, IL., USA).

TNF [2] = assay: In vivo endotoxin shock models (P. acnes model and/or LPS-GAL model, not specified which); design: species or system mice; conditions: for in vivo TNF levels / protection from endotoxic induced shock: one or both of the in vivo assays (P. acnes / LPS-GAL)
Experimental: Two models of endotoxin shock have been utilized to determine in vivo TNF activity and are described below. The actual protocoll used in the models is described in Utility Model Examples A and B set out below, i.e. P. Acnes model and LPS-GAL model.
(§1) Briefly, D-gal ([…]) sensitizes various strains of mice to the lethal effects of endotoxin. The administration of D-gal (300-500mg/kg) intra-venously (i.v.) sensitizes the mice to doses of Lipopolysaccharide(LPS ) as low as 0.1 mg. Briefly, male C57BL/6 mice, obtained from Charles River Laboratories (Stone Ridge, New York, USA) of 6-12 weeks of age were injected i.v. with 0.1 mg of LPS from Salmonella typhosa (Difco Laboratories, Detroit, Michigan, USA) admixed with D(+)-gal (Sigma; 500 mg/kg) in 0.20-0.25 ml pyrogen-free saline. Compounds to be tested were administered at various times prior to or following the iv. injection of LPS/D-gal.
(§2) This model is a modification of the previously described protocol for the in vivo induction of TNF as described in Haranaka et al., Cancer Immunol Immunother, 18:87-90, (1984). Treatment with Proprionibacterium Acnes (P. acnes) (1mg/animal i.p.) renders mice susceptible to the lethal effects of LPS injected 10 days later.
(§3) P. acnes was purchased from Burroughs Wellcome (Triangle Park, North Carolina, USA), and […]of the heat-killed bacteria was administered in 0.5 ml pyrogen-free saline by intraperitoneal (i.p.) injection to male C57BL/6 mice, obtained from Charles River Laboratories (Stone Ridge, New York, USA) of 6-12 weeks of age. Ten days later, the mice were injected iv. with 1 mg LPS in 0.25 ml saline. Compounds to be tested were administered at various times prior to or following the injection of LPS. The survival of animals was monitored for 1 week.
(§4) Plasma levels of TNF were measured using a modification of the basic sandwich ELISA method described in Winston et al., Current Protocols in Molecular Biology, Pg. 11.2.1, Ausubel et al., Ed. (1987) John Wiley and Sons, New York, USA. The Elisa employed a hampster monoclonal anti-mouse TNF (Genzyme, Boston, MA, USA) as the capture antibody and a polyclonal rabbit anti-murine TNF (Genzyme, Boston, MA, USA) as the detecting antibody. TNF levels in rat samples were calculated from a standard curve genereated with recombinant murine TNF (Genzyme, Boston, MA, USA).

TNF [3] = assay: Endotoxin shock in D-gal-sensitized mice (LPS-GAL model), TNF levels by ELISA and survival; type: in vivo; conditions: for reduction of serum TNF levels: LPS-GAL Model, 100 mg/kg, Figure 4; for survival rate: LPS-GAL model, animals with endotoxic shock, Figure 5, control group 30%
Experimental: as §1, with “The protocol used to test the compound of the method of the subject invention was essentially as has been described in Galanos et al., Proc. Nat'l Acad. Sci USA, 76:5939-43 (1979) whose disclosure is herein incorporated by reference. Briefly, D-gal” for “Briefly, D-gal”, “of LPS/D-gal. In this model, the control animals usually die 5-6 hr. following the injection of LPS, although on occasion deaths are seen between 24 and 48 hr.” for “of LPS/D-gal.”
as §4, with “USA). TNF levels determined by ELISA correlated with levels detected by the L929 bioassay of Ruff et. al., J. Immunol. 125:1671-1677 (1980), with 1 Unit of activity in the bioassay corresponding to 70 picograms (pg) of TNF in the ELISA. The ELISA detected levels of TNF down to 25 pg/ml.” for “USA).”

[4] = tested on: IL-1 production by bacterial lipopolysaccharide (LPS)-stimulated human monocytes; conditions: cited from earlier work
TNFa = conditions: Badger et al. 1989, cited from earlier work
[5] = tested on: TNFa production by monocytes; conditions: Lee et al. 1988 and Badger et al. 1989; cited from earlier work
5-lipoxygenase = molecular target: T1, 5-lipoxygenase (Homo sapiens, UniProt P09917); conditions: Lee et al. 1988; cited from earlier work
T1 sequence (P09917 1-674): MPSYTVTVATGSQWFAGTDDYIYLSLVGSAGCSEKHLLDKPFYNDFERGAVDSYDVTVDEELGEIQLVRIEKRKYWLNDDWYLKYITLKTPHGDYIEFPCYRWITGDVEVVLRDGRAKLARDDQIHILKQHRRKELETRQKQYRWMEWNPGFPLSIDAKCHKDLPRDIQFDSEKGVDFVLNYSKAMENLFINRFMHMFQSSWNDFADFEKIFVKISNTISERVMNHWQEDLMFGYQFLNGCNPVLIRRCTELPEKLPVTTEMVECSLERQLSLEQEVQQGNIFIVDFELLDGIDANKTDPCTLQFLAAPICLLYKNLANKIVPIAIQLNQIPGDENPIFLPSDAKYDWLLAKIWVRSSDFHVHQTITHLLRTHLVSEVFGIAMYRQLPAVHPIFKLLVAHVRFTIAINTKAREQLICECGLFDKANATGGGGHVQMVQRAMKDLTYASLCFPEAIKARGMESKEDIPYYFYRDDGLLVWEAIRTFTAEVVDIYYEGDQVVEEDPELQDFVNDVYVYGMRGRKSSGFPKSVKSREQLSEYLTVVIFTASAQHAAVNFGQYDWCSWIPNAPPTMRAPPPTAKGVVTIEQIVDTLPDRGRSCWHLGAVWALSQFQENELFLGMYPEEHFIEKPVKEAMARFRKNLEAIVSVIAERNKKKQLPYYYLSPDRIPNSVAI

cyclooxygenase = conditions: Lee et al. 1988; cited from earlier work
TNF [6] = assay: Endotoxin shock in P. acnes-sensitized mice (P. acnes/LPS model), TNF levels by ELISA; type: in vivo; conditions: P acnes/LPS treated mice, increased oral dosage, Figure 1
Experimental: as §2, §3
Plasma levels of TNF were measured using a modification of the basic sandwich ELISA method described in Winston et al., Current Protocols in Molecular Biology, Pg. 11.2.1, Ausubel et al., Ed. (1987) John Wiley and Sons, New York, USA. […] TNF levels in rat samples were calculated from a standard curve genereated with recombinant murine TNF (Genzyme, Boston, MA, USA). TNF levels determined by ELISA correlated with levels detected by the L929 bioassay of Ruff et. al., J. Immunol. […] The ELISA detected levels of TNF down to 25 pg/ml.

SMILES: Fc1ccc(-c2nc3n(c2-c2ccncc2)CCS3)cc1 [Compound 1, 6-(4-Flurophenyl)-5-(4′pyridyl)-2,3-dihydroimidazo[2,1-b]-thiazole]
reduction of serum TNF levels (TNF [3]): reduction of serum TNF levels
survival rate (TNF [3]): 100%
TNF production (TNF [3]; LPS-Gal mouse model, i.p. injection, Figure 3): inhibitis TNF production
protection from the lethal effects of endotoxin shock (TNF [2]; P. Acnes model and LPS-GAL model): protection from the lethal effects of endotoxin shock
in vivo TNF levels (TNF [2]): reduce the in vivo level of tumor necrosis factor (TNF)
IL-1 production ([4]; Lee et al. 1988, listed as 5-(4-pyridyl)-6(4-fluorophenyl)-2,3-dihydroimidazo(2,1-B)-thiazole): inhibit
IL-1 production ([4]; Lee et al. 1988, listed as 5-(4-pyridyl)-6(4-fluorophenyl)-2,3-dihydroimidazo(2,1-B)thiazole): potent inhibitor
circulating levels of TNFa (TNFa; mouse models of LPS-induced shock): inhibition of circulating levels of TNFa
protection against LPS-induced shock (TNFa; two mouse models): protection
TNFa production by monocytes [5]: inhibit
5-lipoxygenase-mediated arachidonate metabolism (5-lipoxygenase): inhibits
cyclooxygenase-mediated arachidonate metabolism (cyclooxygenase): inhibits

SMILES: CSc1ccc(-c2nc3n(c2-c2ccnc(C)c2)CCC3)cc1 [Compound 16, 2-(4-Methylthiophenyl)-3-[4-(2-methylpyridyl)]-6,7-dihydro[5H]pyrrolo-[1,2-a]imidazole]
in vivo TNF levels (TNF [2]): inhibited in vivo TNF levels

SMILES: CSc1ccc(-c2nc3n(c2-c2ccncc2)CCC3)cc1 [Compound 3, 2-(4-methylthiophenyl)-3-(4-pyridyl)-6,7-dihydro-[5H]-pyrrolo[1,2-a]-imidazole]
IC50 [1]: 1000 nM

SMILES: CC(=O)OCSc1ccc(-c2nc3n(c2-c2ccncc2)CCC3)cc1 [Compound 9, 2-(4-Acetoxymethylthiophenyl)3-(4-pyridyl)-6,7-dihydro[5H]pyrrolo-[1,2-a]-imidazole]
IC50 [1]: 3000 nM

SMILES: C[S+]([O-])c1ccc(-c2nc3n(c2-c2ccncc2)CCC3)cc1 (stereo not drawn) [Compound 2, 2-(4-Methylsulfoxyphenyl)3-(4-pyridyl)-6,7-dihydro[5H]-pyrrolo-[1,2-a]imidazole]
serum TNF levels (TNF [6]): reduction in serum TNF levels
reduction of serum TNF levels (TNF [3]): reduction of serum TNF levels
survival rate (TNF [3]): 100%
in vivo TNF levels (TNF [2]): in vivo activity; also recorded: reduce the in vivo level of tumor necrosis factor (TNF)

SMILES: O=S1(=O)CCn2c1nc(-c1ccc(F)cc1)c2-c1ccncc1 [6-(4-Fluorophenyl)-5-(4-pyridyl)-2,3-dihydroimidazo[2,1-b]thiazole-1,1-dioxide]
in vivo TNF levels (TNF [2]): inhibited in vivo TNF levels
protection from endotoxic induced shock (TNF [2]): protected the animals from endotoxic induced shock

The next lines start with results.

IC50 [1]: 500 nM
SMILES: COc1ccc(-c2nc3n(c2-c2ccncc2)CCC3)cc1 [Compound 10, 2-(4-Methoxyphenyl)-3-(4-pyridyl)-6,7-dihydro-[5H]-pyrrolo-[1,2-a]imidazole]

IC50 [1]: 7000 nM
SMILES: CC[S+]([O-])c1ccc(-c2nc3n(c2-c2ccncc2)CCC3)cc1 (stereo not drawn) [Compound 15, 2-(4-Ethylsulfinylphenyl)-3-(4-pyridyl)-6,7-dihydro[5H]pyrrolo[1,2-a]imidazole]
in vivo TNF levels (TNF [2]): inhibited in vivo TNF levels
protection from endotoxic induced shock (TNF [2]): protected the animals from endotoxic induced shock

IC50 [1]: 1000 nM
SMILES: COc1ccc(-c2nc3n(c2-c2ccncc2)CCC3O)cc1 (stereo not drawn) [Compound 8, 5,6-dihydro-2-(4-methoxyphenyl)-3-(4-pyridinyl)-[7H]-pyrrolo[1,2-a]-imidazole-7-ol]

IC50 [1]: 9000 nM
SMILES: O=S1(=O)CCn2c1nc(-c1ccc(F)cc1)c2-c1ccncc1 [Compound 14, 6-(4-Fluorophenyl)-5-(4-pyridyl)-2,3-dihydroimidazo[2,1-b]thiazole-1,1-dioxide]
